From patent publication US8293513B2, “Histone deacetylase inhibitors” (Georgetown University, priority 2007, dated 2012)
pIC50: −log10 of the molar value. Read-outs that look alike come from different tables or passages of the source.

Experiments:
[1] = target: HeLa nuclear extracts (histone deacetylase); format: biochemical; settings: pan-HDAC inhibition assay
Procedure: Reactions were stopped after 15 min with Fluor de Lys Developer. […] The reaction was performed in triplicate for each sample. Each point represents the mean±SD of replicates.

HDAC3 = HDAC3 (Homo sapiens, UniProt O15379); experiment: HDAC isoform inhibition assay (Fluor de Lys, purified protein); format: biochemical
HDAC1 = HDAC1 (Homo sapiens, UniProt Q13547); experiment: as above; format: biochemical
HDAC6 = target: T1, HDAC6 (Homo sapiens, UniProt Q9UBN7); experiment: as above; format: biochemical
T1 sequence (Q9UBN7 1-1215): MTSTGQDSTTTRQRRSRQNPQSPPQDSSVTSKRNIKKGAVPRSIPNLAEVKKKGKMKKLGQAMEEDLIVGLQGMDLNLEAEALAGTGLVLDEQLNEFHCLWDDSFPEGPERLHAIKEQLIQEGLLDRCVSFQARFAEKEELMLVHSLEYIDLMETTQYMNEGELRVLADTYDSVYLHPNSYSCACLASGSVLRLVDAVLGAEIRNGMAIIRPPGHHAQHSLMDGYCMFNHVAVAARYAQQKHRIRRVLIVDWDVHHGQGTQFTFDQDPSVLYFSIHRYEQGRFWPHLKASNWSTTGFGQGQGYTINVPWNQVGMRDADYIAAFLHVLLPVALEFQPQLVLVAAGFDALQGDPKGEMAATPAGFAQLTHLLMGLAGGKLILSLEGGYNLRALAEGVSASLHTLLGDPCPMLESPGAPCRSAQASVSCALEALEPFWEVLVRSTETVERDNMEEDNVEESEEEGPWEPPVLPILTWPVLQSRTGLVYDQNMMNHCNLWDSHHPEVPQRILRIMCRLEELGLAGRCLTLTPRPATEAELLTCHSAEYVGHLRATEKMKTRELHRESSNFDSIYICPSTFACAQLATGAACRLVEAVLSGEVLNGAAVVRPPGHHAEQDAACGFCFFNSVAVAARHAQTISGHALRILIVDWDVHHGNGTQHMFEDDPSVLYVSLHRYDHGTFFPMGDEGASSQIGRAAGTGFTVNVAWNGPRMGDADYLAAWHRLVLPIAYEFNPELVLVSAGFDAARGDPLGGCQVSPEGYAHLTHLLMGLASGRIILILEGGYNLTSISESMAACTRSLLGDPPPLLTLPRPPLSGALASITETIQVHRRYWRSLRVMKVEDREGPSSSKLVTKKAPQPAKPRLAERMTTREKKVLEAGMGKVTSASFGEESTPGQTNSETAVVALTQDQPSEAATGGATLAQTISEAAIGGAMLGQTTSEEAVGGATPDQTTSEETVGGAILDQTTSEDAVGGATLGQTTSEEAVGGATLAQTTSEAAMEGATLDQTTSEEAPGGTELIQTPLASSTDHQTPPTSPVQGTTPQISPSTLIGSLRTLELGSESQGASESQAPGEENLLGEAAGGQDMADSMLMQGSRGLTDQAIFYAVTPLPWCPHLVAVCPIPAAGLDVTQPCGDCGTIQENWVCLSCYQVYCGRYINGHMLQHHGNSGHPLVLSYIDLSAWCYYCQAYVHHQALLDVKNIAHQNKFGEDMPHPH

HDAC2 = HDAC2 (Homo sapiens, UniProt Q92769); experiment: as above; format: biochemical
HDAC4 = HDAC4 (Homo sapiens, UniProt P56524); settings: PC3 cells, 1 μM, 24 hours (FIG. 6)
Procedure: Human prostate cancer PC3 cells were cultured in Dulbecco's Modified Eagle's Medium (DMEM) with 5% serum at 37° C. over night. […] Control cells were incubated in the absence of test compound.
After 24 hours, the cells were washed with phosphate-buffered saline (1×) one time, and fixed with 4% percent of paraformaldehyde for 15 min. Non specific binding was blocked with 10% normal goat serum in phosphate-buffered saline containing 0.2% tween-20 (sigma aldrich P7949) for 1 hour. Cells were treated with mouse monoclonal anti-HDAC4 antibody (Sigma Aldrich H0163) 1:200 dilution in 5% goat serum in PBS for 1 hour at room temperature. The cells were washed three times with phosphate buffered saline (1×). […] The cells were washed with phosphate-buffered saline (1×) three times. Vecta shield mounting medium for florescence with DIPA (Vector laboratory H-1200) were loaded on the cells and covered with cover glass. The cells were then treated with HDAC4 antibody to visualize HDAC4 and with 4′,6-diamidino-2-phenylindole (DAPI) to visualize the nuclei.
Fluorescence microscopy was used to observe the immunohistostaining results.

PC-3 cells [2] = experiment: Cell cycle distribution (propidium iodide, FACS); format: cell-based; settings: PC-3, 24 hours after adding the compound
Procedure: (§1) LNCap and PC-3 cells were incubated in the presence or absence of compound. The cells were harvested at the indicated time points after addition of compound then washed twice with cold phosphate-buffered saline. Cells (1-2×10^6) were resuspended in 0.5 ml of ice-cold phosphate-buffered saline, and single cell suspension was verified microscopically. The cell suspension was gradually mixed with ice-cold absolute ethanol to the final volume of 2.0 ml, and cooled on ice at least for 20 min before staining with propidium iodide. The cell cycle distributions were measured in a fluorescence-activated cell sorter from Becton Dickinson. DNA content was quantified using ModFit LT 3.0 software (Verity Software House, Inc.).

A549 (lung cancer) cells = experiment: Imaging of tubulin acetylation; format: cell-based; settings: 20 μM, 60 minutes (FIG. 4), versus untreated control
Procedure: Images A, B, and C show the cells after treatment with the histone deacetylase inhibitor (20 μM) for 60 minutes. […] Image C is the DIC image, while image D is a merger of images A, B, and C.

PC-3 (prostate cancer) = experiment: Cell growth inhibition (CellTiter 96 AQueous One, MTS); format: cell-based; settings: Homo sapiens, PC3 cells, 48 hours, read-out: Proliferation IG50 PC3
Procedure: (§2) The cell lines used were PC-3 (prostate cancer), C42 (androgen-independent prostate cancer), LNCap (androgen-dependent prostate cancer), SQ20B (squamous cell carcinoma), MCF7 (breast cancer) and MDA-231 (breast cancer).
(§3) Cells were seeded at 5,000 per well in […] of growing medium in 96-well tissue culture plates. At 24 hours after seeding, a solution of the compound or DMSO vehicle control were added to each well to a total volume of […] (three replicates per concentration), and incubated for 48 hours at 37° C. Growth inhibition was determined using CellTiter 96® AQueous One Solution Cell Proliferation according to manufacturer's instructions (Technical Bulletin: CellTiter 96® AQueous One Solution Cell Proliferation Assay. Instructions for Use of Products G3580, G3581 and G3582; Promega, Inc. Madison, Wis., Revised 4/2005), and the absorbance measured at 490 nm on a microplate reader. The CellTiter 96® AQueous One Solution Cell Proliferation Assay is a colorimetric method for determining the number of viable cells in proliferation, cytotoxicity or chemosensitivity assays and contains a tetrazolium compound [3-(4,5-dimethylthiazol-2-yl)-5-(3-carboxymethoxyphenyl)-2-(4-sulfophenyl)-2H-tetrazolium, inner salt; “MTS”] and an electron coupling reagent (phenazine ethosulfate; PES). The MTS tetrazolium compound (Owen's reagent) is bioreduced by cells into a colored formazan product that is soluble in tissue culture medium. Assays are performed by adding a small amount of the CellTiter 96® AQueous One Solution Reagent directly to culture wells, incubating for 1-4 hours and then recording the absorbance at 490 nm with a 96-well plate reader. The quantity of formazan product as measured by the absorbance at 490 nm is directly proportional to the number of living cells in culture.
(§4) The 50% growth inhibition (IG50) was calculated as the compound concentration required to reduce cell number by 50% compared with control.

[3] = system: SQ20B (squamous cell carcinoma); experiment: as above; format: cell-based; settings: Homo sapiens; SQ20B cells, 48 hours; read-out: Proliferation IG50 SQ20B
Procedure: as §2, §3, §4

[4] = system: C42 (androgen-independent prostate cancer); experiment: as above; format: cell-based; settings: C4-2; C42 cells, 48 hours; read-out: Proliferation IG50 C42
Procedure: as §2, §3, §4

[5] = system: LNCap (androgen-dependent prostate cancer); experiment: as above; format: cell-based; settings: Homo sapiens; LNCap cells, 48 hours; read-out: Proliferation IG50 LNCap
Procedure: as §2, §3, §4

MCF7 (breast cancer) = experiment: as above; format: cell-based; settings: Homo sapiens; MCF7 cells, 48 hours; read-out: Proliferation IG50 MCF7
Procedure: as §2, §3, §4

MDA-231 (breast cancer) = experiment: as above; format: cell-based; settings: Homo sapiens, MDA-MB-231; MDA-231 cells, 48 hours; read-out: Proliferation IG50 MDA-231
Procedure: as §2, §3, §4

HDAC8 = target: T2, HDAC8 (Homo sapiens, UniProt Q9BY41); experiment: biochemical
T2 sequence (Q9BY41 1-377): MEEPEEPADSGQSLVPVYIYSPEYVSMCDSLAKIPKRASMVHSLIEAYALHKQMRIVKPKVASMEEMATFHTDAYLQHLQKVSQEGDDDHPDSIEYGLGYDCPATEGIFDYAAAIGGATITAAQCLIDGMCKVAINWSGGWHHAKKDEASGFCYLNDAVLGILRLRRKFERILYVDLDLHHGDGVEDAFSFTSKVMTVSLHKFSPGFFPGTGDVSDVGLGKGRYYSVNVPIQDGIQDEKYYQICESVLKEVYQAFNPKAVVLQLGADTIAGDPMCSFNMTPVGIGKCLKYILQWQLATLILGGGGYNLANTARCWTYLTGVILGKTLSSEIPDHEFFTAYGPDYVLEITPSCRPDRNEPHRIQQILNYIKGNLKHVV

[6] = Emission and excitation spectra; format: physicochemical
Procedure: Measurement of the emission and excitation spectra for the compound of Example 1 was performed to confirm the corresponding range for fluorescent visualization in cancer cells and to confirm the fluorescent property of the compound.

LNCap cells = experiment: Cell cycle distribution (propidium iodide, FACS); format: cell-based; settings: 24 hours after adding the compound
Procedure: as §1

A549 cells = experiment: Imaging of histone acetylation; format: cell-based; settings: 20 μM, 60 minutes (FIG. 5), versus untreated control
Procedure: Images A, B, C and D show the cells after treatment with the histone deacetylase inhibitor (20 μM) for 60 minutes. […] Image C is the DIC image.

PC-3 cells [7] = experiment: Fluorescence imaging of compound localization in cells; format: cell-based, human; settings: 20 μM
Procedure: (§5) Human prostate cancer cell lines PC-3 and DU145 cells were plated down onto glass slides at a density of 500,000 per slide and incubated overnight. […] The slides were then washed three times with phosphate-buffered saline. The cells were then fixed with a 4% solution of formaldehyde for ten minutes, washed four times with phosphate-buffered saline and mounted. For slides with nuclear staining, cells were treated with propidium iodide (1:1000) for 4 minutes after fixation, washed four times with PBS and mounted.
(§6) Propidium Iodide was imaged with an excitation wavelength of 535 and an emission wavelength of 617. Images were taken at 63×.

DU145 cells = experiment: as above; format: cell-based, human; settings: DU-145 cells, for 60 minutes (FIG. 2)
Procedure: as §5, §6

[8] = HeLa nuclear extracts (Table 2), read-out: HDAC IC50
[9] = HeLa nuclear extracts (Table 3), read-out: pan-HDAC IC50

HDAC3, sequence (O15379 whole entry, species assumed, canonical isoform): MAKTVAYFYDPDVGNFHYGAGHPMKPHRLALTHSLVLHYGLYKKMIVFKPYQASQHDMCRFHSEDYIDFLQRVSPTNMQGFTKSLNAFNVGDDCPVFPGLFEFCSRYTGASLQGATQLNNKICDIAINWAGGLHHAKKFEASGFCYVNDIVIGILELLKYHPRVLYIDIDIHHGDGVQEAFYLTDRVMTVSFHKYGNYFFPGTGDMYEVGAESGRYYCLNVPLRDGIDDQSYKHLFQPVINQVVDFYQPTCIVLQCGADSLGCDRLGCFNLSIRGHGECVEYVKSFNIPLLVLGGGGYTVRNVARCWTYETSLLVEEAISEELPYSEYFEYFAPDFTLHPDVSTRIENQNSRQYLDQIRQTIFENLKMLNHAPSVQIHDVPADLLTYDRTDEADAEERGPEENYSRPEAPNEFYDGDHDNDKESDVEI
HDAC3, sequence (O75376 395-489 partner limits assumed, species assumed): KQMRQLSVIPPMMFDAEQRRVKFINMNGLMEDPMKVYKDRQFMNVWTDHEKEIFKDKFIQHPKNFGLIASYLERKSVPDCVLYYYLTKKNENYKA
HDAC1, sequence (Q13547 whole entry, species assumed): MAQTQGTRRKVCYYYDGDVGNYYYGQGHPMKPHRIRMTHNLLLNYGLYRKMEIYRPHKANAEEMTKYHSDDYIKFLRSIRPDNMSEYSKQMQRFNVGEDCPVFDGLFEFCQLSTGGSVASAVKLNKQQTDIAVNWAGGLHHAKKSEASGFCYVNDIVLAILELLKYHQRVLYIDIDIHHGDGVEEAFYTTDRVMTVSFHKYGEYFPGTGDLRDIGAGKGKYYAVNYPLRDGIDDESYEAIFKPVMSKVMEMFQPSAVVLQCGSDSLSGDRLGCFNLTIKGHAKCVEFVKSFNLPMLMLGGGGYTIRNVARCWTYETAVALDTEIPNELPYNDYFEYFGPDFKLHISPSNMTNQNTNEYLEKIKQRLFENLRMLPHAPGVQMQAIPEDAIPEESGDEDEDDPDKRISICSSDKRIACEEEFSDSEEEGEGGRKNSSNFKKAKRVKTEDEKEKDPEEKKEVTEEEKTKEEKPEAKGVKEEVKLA
HDAC2, sequence (Q92769 whole entry, species assumed): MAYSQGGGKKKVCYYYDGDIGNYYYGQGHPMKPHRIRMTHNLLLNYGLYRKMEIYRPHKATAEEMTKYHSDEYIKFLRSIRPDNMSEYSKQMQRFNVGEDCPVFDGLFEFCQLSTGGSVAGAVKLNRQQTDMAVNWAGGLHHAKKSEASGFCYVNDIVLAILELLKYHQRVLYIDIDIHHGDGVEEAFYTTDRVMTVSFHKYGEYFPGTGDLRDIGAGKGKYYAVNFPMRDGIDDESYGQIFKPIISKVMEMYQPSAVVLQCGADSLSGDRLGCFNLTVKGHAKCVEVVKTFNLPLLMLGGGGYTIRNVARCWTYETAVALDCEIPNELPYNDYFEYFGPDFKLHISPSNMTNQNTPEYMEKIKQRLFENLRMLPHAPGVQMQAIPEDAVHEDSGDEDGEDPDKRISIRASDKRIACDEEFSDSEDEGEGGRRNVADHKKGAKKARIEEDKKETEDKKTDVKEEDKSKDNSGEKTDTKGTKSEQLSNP
HDAC4, sequence (P56524 whole entry): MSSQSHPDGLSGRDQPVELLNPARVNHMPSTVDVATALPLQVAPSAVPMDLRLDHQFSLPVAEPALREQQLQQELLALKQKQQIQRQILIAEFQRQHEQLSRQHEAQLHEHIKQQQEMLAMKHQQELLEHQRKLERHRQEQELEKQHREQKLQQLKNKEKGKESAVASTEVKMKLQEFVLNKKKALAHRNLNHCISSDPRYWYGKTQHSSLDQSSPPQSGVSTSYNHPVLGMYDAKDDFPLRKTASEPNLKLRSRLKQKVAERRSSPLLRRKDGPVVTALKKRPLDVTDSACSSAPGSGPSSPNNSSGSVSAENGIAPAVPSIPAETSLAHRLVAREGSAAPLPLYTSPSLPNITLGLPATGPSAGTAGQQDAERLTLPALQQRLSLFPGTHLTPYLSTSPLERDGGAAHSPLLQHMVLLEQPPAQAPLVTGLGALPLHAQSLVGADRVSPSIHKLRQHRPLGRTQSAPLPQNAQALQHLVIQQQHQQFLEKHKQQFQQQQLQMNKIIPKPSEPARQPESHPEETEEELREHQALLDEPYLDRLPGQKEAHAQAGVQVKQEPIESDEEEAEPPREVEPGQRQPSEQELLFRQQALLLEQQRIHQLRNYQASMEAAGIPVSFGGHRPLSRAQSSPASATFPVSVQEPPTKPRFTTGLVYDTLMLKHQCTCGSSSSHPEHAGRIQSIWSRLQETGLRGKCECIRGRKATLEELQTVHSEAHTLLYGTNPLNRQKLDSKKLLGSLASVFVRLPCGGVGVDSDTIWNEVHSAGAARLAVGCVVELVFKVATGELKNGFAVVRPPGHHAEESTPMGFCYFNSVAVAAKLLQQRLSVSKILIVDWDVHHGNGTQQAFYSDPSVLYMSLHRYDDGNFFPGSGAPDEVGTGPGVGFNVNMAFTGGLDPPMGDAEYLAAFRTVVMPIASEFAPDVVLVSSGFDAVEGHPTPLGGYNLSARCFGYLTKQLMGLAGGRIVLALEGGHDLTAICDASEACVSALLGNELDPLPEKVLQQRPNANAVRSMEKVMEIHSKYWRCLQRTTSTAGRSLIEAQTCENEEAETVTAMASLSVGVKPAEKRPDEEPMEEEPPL

Structure (SMILES) | pIC50 [1, 8] | pIC50 [1, 9] | pIC50 (HDAC3) | pIC50 (HDAC1) | pIC50 (HDAC6) | pIC50 (HDAC2) | Cell cycle distribution G1 (PC-3 cells [2]) | Cell cycle distribution G2 (PC-3 cells [2]) | Cell cycle distribution S (PC-3 cells [2]) | further results
CN(C)c1cccc2c(S(=O)(=O)NCCCCCCCC(=O)NO)cccc12 [Example 4] | 6.68 |  |  |  |  |  |  |  |  | 
CN(C)c1cccc2c(S(=O)(=O)NCCCCCCC(=O)NO)cccc12 [Example 3] | 6.93 | 6.94 | 5.31 | 5.89 | 7.12 | 5.13 |  |  |  | 
O=C(CCCCCCC(=O)Nc1ccccc1)NO [SAHA, suberoylanilide hydroxamic acid, reference compound] |  |  |  |  |  |  | 72.28% | 13.39% | 14.33% | HDAC4 distribution between cytoplasm and nuclei (HDAC4): traps HDAC4 in the cytoplasm of the cells
CN(C)c1cccc2c(S(=O)(=O)NCCCCCC(=O)NO)cccc12 [Example 1, 6-(5-(Dimethylamino)naphthalene-1-sulfonamido)-N-hydroxyhexanamide] | 6.90 | 6.90 | 5.95 | 6.02 | 6.89 | 5.86 | 64.35% | 15.74% | 19.91% | Tubulin acetylation in the cytoplasm (A549 (lung cancer) cells): increased tubulin acetylation; pIC50 (PC-3 (prostate cancer)): 8.81; pIC50 [3]: 8.19; pIC50 [4]: 8.72; pIC50 [5]: 8.91; pIC50 (MCF7 (breast cancer)): 8.04; pIC50 (MDA-231 (breast cancer)): 7.91; pIC50 (HDAC8): 5.54; Emiss (emission wavelength) [6]: 500 nm; Exc (excitation wavelength) [6]: 320 nm; Cell cycle distribution G1 (LNCap cells): 85.23%; Cell cycle distribution G2 (LNCap cells): 5.59%; Cell cycle distribution S (LNCap cells): 9.18%; Histone acetylation in the nucleus (A549 cells): increased nuclear histone acetylation; Co-localization with nuclei stained with propidium iodide (PC-3 cells [7]; PC3 cells, 60 min (FIG. 3)): does not localize to nuclei; Localization of compound fluorescence in cells (PC-3 cells [7]; PC-3 cells, 60 minutes (FIG. 2)): present in the cytoplasm but not the nucleus of cells; Localization of compound fluorescence in cells (DU145 cells): seen fluorescing (green fluorescence) in the cytoplasm
CN(C)c1cccc2c(S(=O)(=O)NCCCCC(=O)NO)cccc12 [Example 2] | 6.54 |  |  |  |  |  |  |  |  | 
